Measured values from patent US12227509B2, “Dihydropyrazolopyrazinone derivative having MGAT2 inhibitory activity” (Shionogi & Co., Ltd., priority 2019, dated 2025).
≈ marks a conversion by molar mass, not a printed value.

Key:
recombinant human MGAT2 = recombinant human MGAT2 (Homo sapiens (Human), UniProt Q3SYC2); test: Measurement of human MGAT2 inhibitory activity; format: biochemical; settings: concentration exhibiting 50% enzyme inhibition; recombinant human MGAT2, 2-Oleoylglycerol/Oleoyl-CoA
How it was run: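 Membrane fraction of baculovirus-infected Sf-9 cells expressing N-terminally Flag-tagged full-length human MGAT2, in 100 mmol/L phosphate pH 7.4 with 2 mmol/L DTT. The substrate solution held 30 μmol/L 2-oleoylglycerol and 10 μmol/L oleoyl-CoA. After 1 h at room temperature, diolein/diolein-d5 ratio was read by ESI Q-TOF MS and % inhibition derived against enzyme and no-enzyme controls.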

Powder solubility test = format: physicochemical; settings: pH 6.8, aqueous buffer, thermodynamic from solid, JP-2 solution, 37° C.
Protocol: Appropriate quantity of the compound of the present invention was put in suitable containers. 200 μL of JP-1 solution (water was added to 2.0 g of sodium chloride and 7.0 mL of hydrochloric acid to reach 1000 mL), 200 μL of JP-2 solution (500 mL of water was added to 500 mL of phosphate buffer (pH 6.8)) or 20 mmol/L sodium taurocholate (TCA)/JP-2 solution (JP-2 solution was added to 1.08 g of TCA to reach 100 mL) was independently added to each container. When total amount was dissolved after adding the test reagent, the compound of the present invention was added appropriately. After sealing and shaking at 37° C. for 1 hour, solution was filtrated and 100 μL of methanol was added to 100 μL of each filtrate to dilute two-fold. The dilution ratio and the dilution solvent were changed as necessary. After checking that there was no bubble and deposit, the container was sealed and shaken. The compound of the present invention was measured using HPLC by absolute calibration curve method.

recombinant human MGAT2, sequence (Q3SYC2 whole entry): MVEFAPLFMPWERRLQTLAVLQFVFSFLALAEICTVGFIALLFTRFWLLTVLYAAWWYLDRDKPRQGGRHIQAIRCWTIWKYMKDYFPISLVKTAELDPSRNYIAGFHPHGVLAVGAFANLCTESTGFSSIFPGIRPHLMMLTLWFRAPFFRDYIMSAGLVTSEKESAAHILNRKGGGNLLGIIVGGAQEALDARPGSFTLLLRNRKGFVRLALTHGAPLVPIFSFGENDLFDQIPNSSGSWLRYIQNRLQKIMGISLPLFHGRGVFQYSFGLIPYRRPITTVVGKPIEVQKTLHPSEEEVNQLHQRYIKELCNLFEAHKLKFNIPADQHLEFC

SMILES	IC50 (recombinant human MGAT2) [µM]	solubility at 1 h (Powder solubility test) [µM]
N#Cc1ccc(-c2nn3c(c2NC(=O)CC(F)(F)F)C(=O)N[C@@]2(CCc4cc(OCC(F)(F)F)ccc42)C3)nc1 [Compound I-14]	0.0461	–
CS(=O)(=O)CC(=O)Nc1c(CCC2CC2)nn2c1C(=O)N[C@@]1(CCc3cc(OCC(F)(F)F)ccc31)C2 [Compound I-46]	–	8.64 (≈ 4.67 µg/mL)
